Drawing on patent publication EP1366743A1, “Use of a derivative of 7-oxydated DHEA for treating dry skin” (L'OREAL, priority 2002, dated 2003), this text covers activation and lipogénèse for 2 compounds.

For the assay, the system named is sébocytes humains immortalisés en culture, issus de la lignée SZ95. In words: Lipogenesis: total lipids produced by cultured immortalised human sebocytes (Nile Red fluorescence). Type of assay: cell-based. To be noted: for activation at 10 µM / activation at 1 µM: 48 h, total lipids, variation versus control, 2 days of treatment, confluent SZ95 sebocytes; for activation at 10 µM: 10^-5 M in 0,1% DMSO, read-out: % de variation à 10^-5 M; for activation at 1 µM: 10^-6 M in 0,1% DMSO, read-out: % de variation à 10^-6 M. The source says:
La 7α-OH DHEA et la 3-O-acétyl 7-benzoyloxy DHEA ont été testées sur un modèle de sébocytes humains immortalisés en culture, issus de la lignée SZ95 décrite dans Zouboulis, C.C., Seltmann, H., Neitzel, H. & Orfanos, C.E., Establishment and Characterization of an Immortalized Human Sebaceous Gland Cell Line, J. Invest. Dermatol., 113, 1011-1020 (1999).
Le test a consisté à mesurer la quantité de lipides produite par les sébocytes de la lignée (à confluence), en présence ou non d'agents actifs dilués dans le DMSO à 10^-5 M et 10^-6 M, de telle sorte que la quantité finale de DMSO dans le milieu de culture soit de 0,1%. Après 2 jours de traitement, les cellules adhérentes sont traitées par du Rouge de Nile (1µg/ml). Le contenu en lipides est ensuite quantifié par mesure de la fluorescence du colorant (deux couples d'excitation/émission : 485-540nm pour les lipides neutres et 540-620 nm pour les lipides non neutres). Les résultats sont donnés pour les lipides totaux (combinaison des deux mesures).
L'expérience est réalisée en sixplicate (produits dosés) ou dodeplicate (témoin) en plaque de 96 puits.
Le Tableau ci-dessous rassemble les résultats obtenus, en pourcentage de variation par rapport au témoin, ainsi que les coefficients p fournis par le test de Student et qui reflètent la significativité des mesures.

For the compound `CC(=O)O[C@H]1CC[C@@]2(C)C(=CC(OC(=O)c3ccccc3)[C@@H]3[C@@H]2CC[C@]2(C)C(=O)CC[C@@H]32)C1` (some centres unmarked) [3-O-acétyl 7-benzoyloxy DHEA], the activation at 10 µM amounted to 15% and the activation at 1 µM was found to be 15%. In addition, the lipogénèse entry (result in words, 10^-6 M) is “efficace”.

Turning to `C[C@]12CC[C@H](O)CC1=C[C@@H](O)[C@@H]1[C@@H]2CC[C@]2(C)C(=O)CC[C@@H]12` [7α-OH DHEA], the activation at 10 µM worked out at 15% and the activation at 1 µM worked out at 6%.
